Consider two molecules from US9241954B2, “Lipopolysaccharide of ochrobactrum intermedium and their use as immunostimulant of mammalians” (LABORATORIOS OVEJERO, S.A., priority 2009, dated 2016).

Series [1] concerns CD8 and CD4 T-cells (spleen cells).
The next series has as its system severe sepsis patients. To be noted: cited from earlier work.

On to “Lipopolysaccharide from Ochrobactrum intermedium strain LMG3306 [IM]”, for which, in series [1], the “toxicity for CD8 and CD4 T-cells / spleen cells” value is given as “no toxic at all”.

Consider `CCOC(=O)C1=CCCC[C@H]1S(=O)(=O)Nc1ccc(F)cc1Cl` [TAK-242], for which the proinflammatory cytokine levels entry in the series with severe sepsis patients (human, in vivo) is reported as “decrease proinflammatory cytokine levels”. Besides, the mortality entry in the series on severe sepsis patients (severe sepsis patients (TAK-242: subgroup with high IL-6 levels)) is given as “decrease mortality”.
